This note sets out measurements from ChEMBL document CHEMBL3091374, “New synthetic enediynes and their conjugates may provide effective treatment for cancer” (ACS Med Chem Lett, 2013).

As usually defined, the EC50 is the concentration needed to bring the measured effect to its halfway point.

One assay relates to NCI-H226. As to the kind of experiment: Antiproliferative activity against human NCI-H226 cells assessed as ATP level after 72 hrs by CellTiter-Glo assay. To be noted: NCI-H226, 72 h. It is filed as functional, cell-based. On the technique in general: Cellular ATP, detected with luciferase, serves as a proxy for viable cell number.
Assay [1] can be described thus: Antiproliferative activity against human 786-O cells assessed as ATP level after 72 hrs by CellTiter-Glo assay. It is filed as functional, cell-based. The note with it: 786-0, 72 h.

`C[C@@H](O)[C@@]12O[C@]13c1cc(O)c4c(c1N[C@H]2C#C/C=C\C#C[C@H]3O)C(=O)c1ccc(NC(=O)c2ccc(N)cc2)cc1C4=O`: the EC50 in the assay with NCI-H226 was 0.873 nM; in assay [1], 0.058 nM.

Turning to `C[C@@H](O)[C@@]12O[C@]13c1cc(O)c4c(c1N[C@H]2C#C/C=C\C#C[C@H]3O)C(=O)c1ccc(NCCN)cc1C4=O`, the EC50 with NCI-H226 is 0.986 nM; in assay [1] it was 1.27 nM.
